Activity calls are given as the source filed them. The calls are words filed in the database; no cut-off is given here.
Key:
[1] = C0 in male Sprague-Dawley rat at 2 mg/kg, iv measured upto 24 hrs by LC-MS/MS analysis; type: ADME, organism-based; settings: in vivo
[2] = tested on: Human immunodeficiency virus 2; test: Anti-HIV activity against HIV-2 ROD infected in human MT-4 cells assessed as protection against virus-induced cytopathic effect incubated for 5 days by spectrophotometric based MTT assay; type: functional, organism-based; settings: Human immunodeficiency virus 2, ROD, MT4, 120 h
[3] = Acute toxicity in male Kunming mouse assessed as body weight gain at 1000 mg/kg, IG administered via gavage; type: organism-based; settings: in vivo, po
[4] = tested on: Human immunodeficiency virus 1; test: Induction of HIV-1 CA-NC assessed as capsid assembly at 10 uM by FRET analysis; settings: filed as modulator
[5] = tested on: MT4; test: Cytotoxicity against human MT4 cells assessed as reduction in cell viability incubated for 5 days by spectrophotometric based MTT assay; type: functional; settings: MT4, 120 h, time 5 day
[6] = MRT(0 to infinity) in male Sprague-Dawley at 10 mg/kg, sc measured upto 24 hrs by LC-MS/MS analysis; type: ADME, organism-based; settings: rat, in vivo
[7] = Acute toxicity in male Kunming mouse assessed as anorexia at 1000 mg/kg, IG administered via gavage; type: organism-based; settings: in vivo, po
[8] = tested on: Human immunodeficiency virus 1; test: Antiviral activity against pseudotyped HIV-1 expressing luciferase-reporter transfected in HEK293T cells assessed as viral inhibition at early stage incubated for 48 hrs by Single-round infection assay; type: functional, organism-based
[9] = Subacute toxicity in male Kunming mouse assessed as hunched posture at 50 mg/kg, po administered every other day for 14 days; type: organism-based; settings: in vivo, 336 h, time 14 day
[10] = Selectivity ratio of EC50 for wild type HIV-1 IIIB infected in human MT4 cells to EC50 for HIV-2 ROD infected in human MT-4 cells assessed as protection against virus-induced cytopathic effect incubated for 5 days by spectrophotometric based MTT assay; type: functional; settings: time 5 day
[11] = Metabolic stability in human liver microsomes assessed as intrinsic clearance at 1 uM incubated for 60 mins by LC-MS/MS analysis; type: ADME, Microsome; settings: read-out: CLH
[12] = Subacute toxicity in male Kunming mouse assessed as pathological damage in kidney at 50 mg/kg, po administered every other day for 14 days by H and E staining based analysis; type: organism-based; settings: in vivo, 336 h, time 14 day
[13] = Subacute toxicity in male Kunming mouse assessed as piloerection at 50 mg/kg, po administered every other day for 14 days; type: organism-based; settings: in vivo, 336 h, time 14 day
[14] = Half life in male Sprague-Dawley rat at 10 mg/kg, sc measured upto 24 hrs by LC-MS/MS analysis; type: ADME, organism-based; settings: in vivo
[15] = AUC(0 to t) in male Sprague-Dawley rat at 2 mg/kg, iv measured upto 24 hrs by LC-MS/MS analysis; type: ADME, organism-based; settings: in vivo
[16] = MRT(0 to t) in male Sprague-Dawley rat at 2 mg/kg, iv measured upto 24 hrs by LC-MS/MS analysis; type: ADME, organism-based; settings: in vivo
[17] = Cmax in male Sprague-Dawley rat at 10 mg/kg, sc measured upto 24 hrs by LC-MS/MS analysis; type: ADME, organism-based; settings: in vivo
[18] = Cmax in male Sprague-Dawley rat at 2 mg/kg, iv measured upto 24 hrs by LC-MS/MS analysis; type: ADME, organism-based; settings: in vivo
[19] = Acute toxicity in male Kunming mouse assessed as convulsion at 1000 mg/kg, IG administered via gavage; type: organism-based; settings: in vivo, po
[20] = MRT(0 to infinity) in male Sprague-Dawley rat at 2 mg/kg, iv measured upto 24 hrs by LC-MS/MS analysis; type: ADME, organism-based; settings: in vivo
[21] = Acute toxicity in female Kunming mouse assessed as sedation at 1000 mg/kg, IG administered via gavage; type: organism-based; settings: in vivo, po
[22] = Subacute toxicity in male Kunming mouse assessed as change in body weight at 50 mg/kg, po administered every other day for 14 days; type: organism-based; settings: in vivo, 336 h, time 14 day
[23] = Tmax in male Sprague-Dawley rat at 2 mg/kg, iv measured upto 24 hrs by LC-MS/MS analysis; type: ADME, organism-based; settings: in vivo
[24] = AUC(0 to t) in male Sprague-Dawley rat at 10 mg/kg, sc measured upto 24 hrs by LC-MS/MS analysis; type: ADME, organism-based; settings: in vivo
[25] = Subacute toxicity in male Kunming mouse assessed as focal lymphocyte infiltration in liver at 50 mg/kg, po administered every other day for 14 days by H and E staining based analysis; type: organism-based; settings: in vivo, 336 h, time 14 day
[26] = tested on: Human immunodeficiency virus 1; test: Anti-HIV activity against wild type HIV-1 IIIB infected in human MT4 cells assessed as protection against virus-induced cytopathic effect incubated for 5 days by spectrophotometric based MTT assay; type: functional, organism-based; settings: Human immunodeficiency virus 1, IIIB, MT4, 120 h
[27] = Acute toxicity in female Kunming mouse assessed as death at 1000 mg/kg, IG administered via gavage; type: organism-based; settings: in vivo, po
[28] = Subacute toxicity in male Kunming mouse assessed as convulsion at 50 mg/kg, po administered every other day for 14 days; type: organism-based; settings: in vivo, 336 h, time 14 day
[29] = Subacute toxicity in male Kunming mouse assessed as animal death at 50 mg/kg, po administered every other day for 14 days; type: organism-based; settings: in vivo, 336 h, time 14 day
[30] = biological target: Structural capsid protein (Human immunodeficiency virus 1) (UniProt Q76129); test: Binding affinity to HIV-1 hexameric capsid protein assessed as reduction in NUP153 binding to capsid protein by competition assay based SPR analysis; settings: filed as modulator
[31] = MRT(0 to t) in male Sprague-Dawley rat at 10 mg/kg, sc measured upto 24 hrs by LC-MS/MS analysis; type: ADME, organism-based; settings: in vivo
[32] = Selectivity index, ratio of CC50 for human MT4 cells to EC50 for wild type HIV-1 IIIB infected in human MT4 cells; type: toxicity, cell-based; settings: read-out: Selectivity Index
[33] = Apparent volume of distribution in male Sprague-Dawley rat at 2 mg/kg, iv measured upto 24 hrs by LC-MS/MS analysis; type: ADME, organism-based; settings: in vivo, read-out: Vz
[34] = Clearance in male Sprague-Dawley rat at 2 mg/kg, iv measured upto 24 hrs by LC-MS/MS analysis; type: ADME, organism-based; settings: in vivo
[35] = Selectivity index, ratio of CC50 for human MT4 cells to EC50 for HIV-2 ROD infected in human MT-4 cells; type: toxicity, cell-based; settings: read-out: Selectivity Index
[36] = Subacute toxicity in male Kunming mouse assessed as pathological damage in spleen at 50 mg/kg, po administered every other day for 14 days by H and E staining based analysis; type: organism-based; settings: in vivo, 336 h, time 14 day
[37] = biological target: Structural capsid protein (Human immunodeficiency virus 1, UniProt Q76129); test: Binding affinity to monomeric HIV-1 NL4.3 capsid protein assessed as dissociation constant by SPR assay
[38] = tested on: Human immunodeficiency virus 1; test: Antiviral activity against pseudotyped HIV-1 expressing luciferase-reporter transfected in HEK293T cells assessed as viral inhibition at late stage incubated for 48 hrs by Single-round infection assay; type: functional, organism-based
[39] = biological target: Human immunodeficiency virus type 1 reverse transcriptase (Human immunodeficiency virus 1) (UniProt Q72547); test: Inhibition of HIV1 reverse transcriptase at 6 nM incubated for 1 hr by ELISA analysis
[40] = Acute toxicity in female Kunming mouse assessed as anorexia at 1000 mg/kg, IG administered via gavage; type: organism-based; settings: in vivo, po
[41] = […] bioavailability in male Sprague-Dawley rat at 10 mg/kg measured upto 24 hrs by LC-MS/MS analysis; type: ADME, organism-based; settings: in vivo
[42] = Tmax in male Sprague-Dawley rat at 10 mg/kg, sc measured upto 24 hrs by LC-MS/MS analysis; type: ADME, organism-based; settings: in vivo

Sequence of Structural capsid protein (Q76129 whole entry): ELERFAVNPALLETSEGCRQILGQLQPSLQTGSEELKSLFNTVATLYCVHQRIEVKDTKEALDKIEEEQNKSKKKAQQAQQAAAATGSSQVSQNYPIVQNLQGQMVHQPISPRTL
Sequence of Structural capsid protein (Human immunodeficiency virus 1) (Q76129 as listed by the source): as the sequence (Q76129 whole entry) above

In the case of `CN(C(=O)[C@H](Cc1cc(F)cc(F)c1)NC(=O)Cc1c[nH]c2ccc(O)cc12)c1ccc2scnc2c1`, the C0 at 24 h [1] is reported as 33.7 ng/mL, the EC50 [2] is reported as 98 nM and the Activity [3] is reported as “Non-toxic”. The Activity [4] was “Active”, the CC50 [5] was 133000 nM and the MRT inf [6] was 5.85 h. The Activity [7] was “Non-toxic”, the Activity [8] was “Active” and the Activity [9] was “Non-toxic”. The “Ratio EC50” value [10] was 0.03, the CLint scaled at 1 µM [11] was 15.2 mL/min/kg and the Activity [12] was “Non-toxic”. For the same compound, the Activity [13] was “Non-toxic”, the half-life [14] was 3.66 h and the AUC(0-t) at 24 h [15] was 5.53 ng·h/mL. For the same compound, the MRT last at 24 h [16] was 7.74 min, the Cmax [17] was 4.99 ng/mL and the Cmax [18] was 18.8 ng/mL. For the same compound, the Activity [19] was “Non-toxic”, the MRT inf [20] was 0.201 h and the Activity [21] was “Non-toxic”. For the same compound, the Activity [22] was “Non-toxic”, the Tmax [23] was 4.98 min and the AUC(0-t) at 24 h [24] was 23.3 ng·h/mL. For the same compound, the Activity [25] was “Toxic”, the EC50 [26] was 2.69 nM and the Activity [27] was “Non-toxic”. The Activity [28] was “Non-toxic”, the Activity [29] was “Non-toxic” and the Activity [30] was “Active”. For the same compound, the MRT last at 24 h [31] was 3.04 h, the selectivity ratio [32] was 49400 and the Vd [33] was 72.9 L/kg. The CL [34] was 4712.52 mL/min/kg, the selectivity ratio [35] was 1360 and the Activity [36] was “Non-toxic”. For the same compound, the Kd [37] was 81.1 nM, the Activity [38] was “Active” and the inhibition [39] was “inactive”. For the same compound, the Activity [40] was “Non-toxic”, the bioavailability [41] was 84.2% and the Tmax [42] was 1.33 h.

Reference: ChEMBL document CHEMBL6083251, “"Pseudosubstrate Envelope"/Free Energy Perturbation-Guided Design and Mechanistic Investigations of Benzothiazole HIV Capsid Modulators with High Ligand Efficiency” (J Med Chem, 2024)
